Active and inactive are the calls of the source.
Key:
Cytochrome P450 2C9 = Cytochrome P450 2C9 (Homo sapiens, UniProt P11712)
Coagulation factor XII = biological target: T1, Coagulation factor XII (Homo sapiens, UniProt P00748); test: FXIIa inhibitor potency, concentration-response, biochemical (AID 716); type: functional
T1 sequence (P00748 whole entry): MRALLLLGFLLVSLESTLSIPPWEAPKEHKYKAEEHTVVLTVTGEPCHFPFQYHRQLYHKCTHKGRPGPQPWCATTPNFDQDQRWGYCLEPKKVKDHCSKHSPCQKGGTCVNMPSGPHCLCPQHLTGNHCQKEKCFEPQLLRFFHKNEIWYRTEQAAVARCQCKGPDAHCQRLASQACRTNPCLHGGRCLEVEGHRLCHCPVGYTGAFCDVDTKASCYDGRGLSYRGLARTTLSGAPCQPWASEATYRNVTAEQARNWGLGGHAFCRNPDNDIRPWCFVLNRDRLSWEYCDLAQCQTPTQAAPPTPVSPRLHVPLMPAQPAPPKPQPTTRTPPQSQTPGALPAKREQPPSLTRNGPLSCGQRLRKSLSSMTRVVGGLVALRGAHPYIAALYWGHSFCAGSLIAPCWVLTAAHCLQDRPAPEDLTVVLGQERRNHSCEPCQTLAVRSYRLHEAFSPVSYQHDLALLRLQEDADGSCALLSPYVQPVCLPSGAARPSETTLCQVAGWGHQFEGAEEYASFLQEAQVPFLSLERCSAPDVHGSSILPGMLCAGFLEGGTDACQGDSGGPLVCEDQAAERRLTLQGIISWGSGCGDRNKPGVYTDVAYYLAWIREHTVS

[1] = biological target: 1-acylglycerol-3-phosphate O-acyltransferase ABHD5/Perilipin-5 (Homo sapiens, UniProt Q00G26+Q8WTS1); test: Luminescence-based biochemical high throughput dose response assay for inhibitors of the interaction of the lipase co-activator protein, abhydrolase domain containing 5 (ABHD5) with perilipin-5 (MLDP; PLIN5) (2K validation set). [Related pubchem assays (depositor defined):AID493035, AID493241]
Sequence of 1-acylglycerol-3-phosphate O-acyltransferase ABHD5/Perilipin-5 (Q00G26 whole entry, the tested form may be a part): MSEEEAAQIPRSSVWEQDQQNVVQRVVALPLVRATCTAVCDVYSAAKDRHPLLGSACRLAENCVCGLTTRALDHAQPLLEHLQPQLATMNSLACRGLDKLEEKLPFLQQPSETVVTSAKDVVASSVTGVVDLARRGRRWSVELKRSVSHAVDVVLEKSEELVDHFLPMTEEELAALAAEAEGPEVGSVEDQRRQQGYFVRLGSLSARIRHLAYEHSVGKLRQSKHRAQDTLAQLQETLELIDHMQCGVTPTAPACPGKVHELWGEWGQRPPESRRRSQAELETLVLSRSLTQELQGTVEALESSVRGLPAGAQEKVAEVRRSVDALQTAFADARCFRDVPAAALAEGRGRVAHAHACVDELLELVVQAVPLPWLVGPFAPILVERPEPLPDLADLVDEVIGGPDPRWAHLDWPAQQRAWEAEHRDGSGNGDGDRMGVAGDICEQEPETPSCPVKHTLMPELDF
Sequence of 1-acylglycerol-3-phosphate O-acyltransferase ABHD5/Perilipin-5 (Q8WTS1 whole entry, the tested form may be a part): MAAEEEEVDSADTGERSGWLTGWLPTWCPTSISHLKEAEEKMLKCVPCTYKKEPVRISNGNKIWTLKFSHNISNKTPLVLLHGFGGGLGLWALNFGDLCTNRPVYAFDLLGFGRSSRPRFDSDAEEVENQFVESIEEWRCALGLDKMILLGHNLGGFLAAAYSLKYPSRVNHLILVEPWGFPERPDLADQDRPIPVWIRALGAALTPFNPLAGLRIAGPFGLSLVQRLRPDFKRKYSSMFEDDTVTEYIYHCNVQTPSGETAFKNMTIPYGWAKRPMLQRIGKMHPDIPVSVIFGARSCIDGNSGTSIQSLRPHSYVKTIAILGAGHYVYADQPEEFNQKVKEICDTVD

Perilipin-1/ABHD5 = Perilipin-1/ABHD5 (Homo sapiens, UniProt O60240+Q8WTS1); test: Luminescence-based biochemical high throughput dose response assay for inhibitors of the interaction of the lipase co-activator protein, abhydrolase domain containing 5 (ABHD5) with perilipin-1 (PLIN1) (2K validation set). [Related pubchem assays (depositor defined):AID493027, AID493057]
Sequence of Perilipin-1/ABHD5 (Q8WTS1 whole entry, the tested form may be a part): as above
Sequence of Perilipin-1/ABHD5 (O60240 whole entry, the tested form may be a part): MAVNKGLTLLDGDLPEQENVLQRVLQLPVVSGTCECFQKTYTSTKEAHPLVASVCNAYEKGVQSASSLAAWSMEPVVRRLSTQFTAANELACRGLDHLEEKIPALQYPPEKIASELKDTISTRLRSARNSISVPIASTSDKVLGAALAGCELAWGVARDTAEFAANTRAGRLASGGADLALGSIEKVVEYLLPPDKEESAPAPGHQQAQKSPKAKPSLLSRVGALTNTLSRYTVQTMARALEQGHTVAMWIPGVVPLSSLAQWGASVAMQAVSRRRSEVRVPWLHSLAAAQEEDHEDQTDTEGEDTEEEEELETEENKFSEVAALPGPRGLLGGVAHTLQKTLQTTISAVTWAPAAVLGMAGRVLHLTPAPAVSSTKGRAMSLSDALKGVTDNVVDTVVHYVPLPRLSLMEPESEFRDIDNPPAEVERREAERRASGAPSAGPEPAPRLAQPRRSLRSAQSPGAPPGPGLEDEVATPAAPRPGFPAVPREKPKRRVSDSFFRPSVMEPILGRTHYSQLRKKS

[2] = biological target: Female germline-specific tumor suppressor gld-1 (Caenorhabditis elegans, UniProt Q17339); test: inhibitors of GLD-1 binding to TGE RNA, dose response, biochemical, fluorescence polarization, C. elegans (AID 2802);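 further: fluorescence polarization of labeled TGE RNA bound by purified gld-1 protein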
Protein Rev = Protein Rev (Human immunodeficiency virus type 1 group M subtype B (isolate HXB2)(HIV-1), UniProt P04618); test: inhibitors of Rev binding to RRE RNA, dose response, biochemical, fluorescence polarization, HIV-1 (AID 434976); parameters: species or system Human immunodeficiency virus 1
Sequence of Protein Rev (P04618 whole entry): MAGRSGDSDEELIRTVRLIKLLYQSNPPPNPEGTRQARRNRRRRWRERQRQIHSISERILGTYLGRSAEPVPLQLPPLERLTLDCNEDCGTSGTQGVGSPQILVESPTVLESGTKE

[3] = biological target: Induced myeloid leukemia cell differentiation protein Mcl-1 (Homo sapiens, UniProt Q07820); type: functional
[4] = biological target: E3 ubiquitin-protein ligase XIAP (Homo sapiens, UniProt P98170); test: Counter Screen using XIAP-Bir3 for Chemical Antagonists of Bir1/2 domains of IAP-family anti-apoptotic proteins. [Related pubchem assays (depositor defined):AID1018, AID1449, AID1514, AID1638, AID1749, AID1750, AID488957, AID488963]
[5] = biological target: Polyadenylate-binding protein 1 (Homo sapiens, UniProt P11940); test: PABP inhibition in translation initiation, SAR follow-up (AID 435018); type: functional
Sequence of Polyadenylate-binding protein 1 (P11940 whole entry, the tested form may be a part): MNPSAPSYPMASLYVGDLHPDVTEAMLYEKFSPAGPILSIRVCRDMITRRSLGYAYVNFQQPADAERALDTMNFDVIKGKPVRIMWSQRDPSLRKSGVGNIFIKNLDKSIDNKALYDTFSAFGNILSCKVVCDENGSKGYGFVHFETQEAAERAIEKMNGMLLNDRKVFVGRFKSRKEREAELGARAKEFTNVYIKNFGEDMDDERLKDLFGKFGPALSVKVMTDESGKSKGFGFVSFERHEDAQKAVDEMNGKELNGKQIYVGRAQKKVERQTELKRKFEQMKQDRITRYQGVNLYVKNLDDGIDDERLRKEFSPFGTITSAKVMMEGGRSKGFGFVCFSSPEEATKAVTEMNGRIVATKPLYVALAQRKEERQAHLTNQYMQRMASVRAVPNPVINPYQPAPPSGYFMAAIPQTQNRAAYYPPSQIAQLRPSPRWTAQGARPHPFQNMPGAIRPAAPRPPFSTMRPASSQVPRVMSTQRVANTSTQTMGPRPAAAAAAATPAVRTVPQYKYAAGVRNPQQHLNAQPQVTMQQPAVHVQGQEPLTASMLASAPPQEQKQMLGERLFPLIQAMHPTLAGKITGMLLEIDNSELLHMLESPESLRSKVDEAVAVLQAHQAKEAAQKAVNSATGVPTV

[6] = biological target: T2, Carboxy-terminal domain RNA polymerase II polypeptide A small phosphatase 1 (Homo sapiens, UniProt Q9GZU7); test: inhibitors of CTDSP1, concentration-response testing, biochemical assay, absorbance-based, actives from ultra-high-throughput screening (AID 540297); type: functional
T2 sequence (Q9GZU7 whole entry): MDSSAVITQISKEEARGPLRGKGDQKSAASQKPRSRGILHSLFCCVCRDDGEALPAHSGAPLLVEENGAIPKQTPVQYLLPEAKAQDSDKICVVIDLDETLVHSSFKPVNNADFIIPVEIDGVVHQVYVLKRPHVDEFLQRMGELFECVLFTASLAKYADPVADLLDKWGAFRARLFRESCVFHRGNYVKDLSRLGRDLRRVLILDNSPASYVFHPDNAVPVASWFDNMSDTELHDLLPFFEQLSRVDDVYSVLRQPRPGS

[7] = biological target: Eukaryotic translation initiation factor 4H (Homo sapiens, UniProt Q15056); test: eIF4H inhibition in translation initiation, SAR follow-up (AID 435011); type: functional
[8] = biological target: Nucleotide-binding oligomerization domain-containing protein 2 (Homo sapiens, UniProt Q9HC29); test: NOD2 signaling inhibitors, cell-based, luminescence, uHTS, HEK293 (AID 1566); type: functional
HEK293 [9] = test: cells; type: functional, cell-based; settings: Homo sapiens
HEK293 [10] = test: cells; type: functional, cell-based; settings: Homo sapiens; remark: listed apart in the source
HEK293 [11] = test: cells; type: functional, cell-based; settings: Homo sapiens; remark: listed apart in the source
HEK293 [12] = test: NOD1 signaling inhibitors, primary screen, cell-based, luminescence, uHTS (AID 1578); type: functional; settings: Homo sapiens
HEK293 [13] = test: NOD2 signaling inhibitors in MDP-stimulated cells, cell-based, uHTS, luminescence (AID 2001); type: functional; settings: Homo sapiens
X-box-binding protein 1 = X-box-binding protein 1 (Homo sapiens, UniProt P17861); type: functional, Cricetulus griseus;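 further: confirmatory dose-response counter-screen serving a CHOP assay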
Sequence of X-box-binding protein 1 (P17861 whole entry): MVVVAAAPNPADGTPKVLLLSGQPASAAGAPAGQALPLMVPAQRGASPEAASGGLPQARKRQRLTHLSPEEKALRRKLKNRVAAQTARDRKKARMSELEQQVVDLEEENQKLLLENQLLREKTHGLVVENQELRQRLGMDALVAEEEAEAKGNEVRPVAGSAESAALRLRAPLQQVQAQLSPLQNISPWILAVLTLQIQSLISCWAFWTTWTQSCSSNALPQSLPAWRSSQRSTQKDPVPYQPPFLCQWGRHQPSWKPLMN

Genome polyprotein = Genome polyprotein (dengue virus type 2, UniProt P29990); test: Dengue-2 NS5 methyltransferase inhibitors, primary screen, biochemical, confirmation dose response (AID 588689); type: functional
Sequence of Genome polyprotein (P29990 2492-3391 limits assumed): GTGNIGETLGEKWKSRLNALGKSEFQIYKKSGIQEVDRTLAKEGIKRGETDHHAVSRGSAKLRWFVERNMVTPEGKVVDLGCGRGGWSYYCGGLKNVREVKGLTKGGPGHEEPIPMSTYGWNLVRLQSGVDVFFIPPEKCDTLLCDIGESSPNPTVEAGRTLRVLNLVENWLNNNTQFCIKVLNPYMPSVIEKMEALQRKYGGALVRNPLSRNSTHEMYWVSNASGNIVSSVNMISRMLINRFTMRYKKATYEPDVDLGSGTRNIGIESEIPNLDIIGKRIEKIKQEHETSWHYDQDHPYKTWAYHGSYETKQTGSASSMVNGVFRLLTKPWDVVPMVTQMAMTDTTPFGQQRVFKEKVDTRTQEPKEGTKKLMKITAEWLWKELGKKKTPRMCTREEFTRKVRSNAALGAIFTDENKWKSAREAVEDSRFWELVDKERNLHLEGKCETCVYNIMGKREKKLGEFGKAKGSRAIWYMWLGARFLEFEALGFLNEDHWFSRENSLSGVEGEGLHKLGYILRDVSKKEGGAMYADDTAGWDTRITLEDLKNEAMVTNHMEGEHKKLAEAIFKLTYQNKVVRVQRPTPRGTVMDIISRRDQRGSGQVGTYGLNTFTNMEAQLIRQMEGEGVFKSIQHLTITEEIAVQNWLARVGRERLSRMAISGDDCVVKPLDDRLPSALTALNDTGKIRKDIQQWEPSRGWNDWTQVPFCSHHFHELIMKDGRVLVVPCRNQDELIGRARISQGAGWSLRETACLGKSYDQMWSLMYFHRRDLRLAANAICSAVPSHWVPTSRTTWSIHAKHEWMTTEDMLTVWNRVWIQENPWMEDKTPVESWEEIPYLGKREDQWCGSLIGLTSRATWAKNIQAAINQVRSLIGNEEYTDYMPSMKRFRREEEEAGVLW

Cytochrome P450 2D6 = Cytochrome P450 2D6 (Homo sapiens, UniProt P10635);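 further: CYP2D6 member of a cytochrome P450 panel assay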
Prothrombin = Prothrombin (Homo sapiens, UniProt P00734); test: Thrombin 1536 HTS Dose Response Confirmation. [Related pubchem assays: 1046 (Thrombin 1536 HTS; hits were confirmed in this assay)]; type: functional
[14] = system: Streptococcus sp. 'group A'; test: growth inhibition of control SK(-) GAS strain, dose response, counter-screen for streptokinase expression inhibitor project, luminescence, kanamycin, BacTiterGlo, confirmation (AID 1900); type: functional, organism-based
Streptokinase A = biological target: T3, Streptokinase A (Streptococcus pyogenes serotype M1, UniProt P10520); test: S. pyogenes streptokinase expression inhibitors, potency, dose response, plasminogen activation absorbance, OD405 (AID 1914); type: functional, Streptococcus pyogenes M1 GAS;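 further: secreted streptokinase activity via plasminogen activation per viability signal from cell pellet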
T3 sequence (P10520 whole entry): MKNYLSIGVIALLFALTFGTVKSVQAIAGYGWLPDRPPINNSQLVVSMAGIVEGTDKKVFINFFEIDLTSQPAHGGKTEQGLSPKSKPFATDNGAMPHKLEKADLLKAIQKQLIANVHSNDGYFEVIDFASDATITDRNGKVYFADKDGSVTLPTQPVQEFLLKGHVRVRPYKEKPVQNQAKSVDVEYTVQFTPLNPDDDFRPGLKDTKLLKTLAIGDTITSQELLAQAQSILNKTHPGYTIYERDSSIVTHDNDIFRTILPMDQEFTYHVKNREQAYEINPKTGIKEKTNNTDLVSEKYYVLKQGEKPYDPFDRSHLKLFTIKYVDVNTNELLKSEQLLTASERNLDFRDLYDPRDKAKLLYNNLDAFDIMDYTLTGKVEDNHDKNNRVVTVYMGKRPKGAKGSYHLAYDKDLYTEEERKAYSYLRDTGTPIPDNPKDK

Streptococcus = test: Group A Streptococcus viability loss, dose response, counter-screen for streptokinase expression inhibitor project, luminescence, BacTiterGlo (AID 1915); type: functional, organism-based;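 further: potency for reduction of bacterial viability or growth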
[15] = biological target: G-protein coupled receptor 55 (Homo sapiens, UniProt Q9Y2T6); test: GPR55 agonists via beta-arrestin recruitment, primary screen, imaging, U2OS cells, beta-arrestin-GFP redistribution (AID 1961); type: functional
Sequence of G-protein coupled receptor 55 (Q9Y2T6 whole entry): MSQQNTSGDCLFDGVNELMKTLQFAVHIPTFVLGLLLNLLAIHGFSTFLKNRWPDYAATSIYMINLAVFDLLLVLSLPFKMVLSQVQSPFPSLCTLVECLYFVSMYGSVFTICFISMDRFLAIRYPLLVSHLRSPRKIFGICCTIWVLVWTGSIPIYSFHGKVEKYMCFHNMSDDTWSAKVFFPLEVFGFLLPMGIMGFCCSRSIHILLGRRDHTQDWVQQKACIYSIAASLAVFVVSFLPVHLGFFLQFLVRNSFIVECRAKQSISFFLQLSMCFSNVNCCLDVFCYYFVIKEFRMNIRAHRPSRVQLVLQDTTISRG

[16] = microbe, parasite or virus in culture; type: functional; settings: Mycobacterium tuberculosis
[17] = growth suppression of PTEN-null colon cells, dose response, cell-based, HCT116 PTEN knockout (AID 1047); type: functional;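 further: HCT116 colon tumor cells with PTEN knocked out; cells exposed to compound for 60 hours before readout; potency for loss of cell viability measured by luminescence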
[18] = growth suppression of beta-catenin-knockout colon cells, dose response, cell-based, HCT116, human colon tumor (AID 1045); type: functional;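 further: HCT116 colon tumor cells with beta catenin knocked out; cells exposed to compound for 60 hours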
Nonstructural protein 1 = Nonstructural protein 1 (Influenza A virus, UniProt Q194T2); type: functional, Influenza A virus (A/California/07/2009(H1N1))
Sequence of Nonstructural protein 1 (Q194T2 whole entry): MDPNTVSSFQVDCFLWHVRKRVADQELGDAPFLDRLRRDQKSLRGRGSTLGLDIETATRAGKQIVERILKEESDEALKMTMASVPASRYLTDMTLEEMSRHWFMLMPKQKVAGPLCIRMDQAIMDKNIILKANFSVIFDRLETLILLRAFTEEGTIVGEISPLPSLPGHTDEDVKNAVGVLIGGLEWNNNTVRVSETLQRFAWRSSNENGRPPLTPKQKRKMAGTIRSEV

CAAX prenyl protease 2 = CAAX prenyl protease 2 (Saccharomyces cerevisiae S288c, UniProt Q03530); type: biochemical
[19] = inhibitors of intracellular T. cruzi replication, confirmation, NIH3T3 host cells, beta-gal luminescence (AID 2044); type: functional, cell-based;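 further: intracellular parasites grown in NIH/3T3 mouse fibroblasts as host cells; luminescent beta-galactosidase reporter signal from transgenic T. cruzi replicating inside host cells; inhibitors lower the luminescence signal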
Bcl-2-like protein 10 = biological target: T4, Bcl-2-like protein 10 (Homo sapiens, UniProt Q9HD36); test: displacers of TR3 peptide from Bcl-B, primary screen, selectivity assay for Bfl-1 inhibitor project, biochemical, fluorescence polarization, FITC-TR3 peptide (AID 748);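 further: fluorescence polarization from a fluorescein-labelled TR3 peptide binding purified Bcl-B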
T4 sequence (Q9HD36 whole entry): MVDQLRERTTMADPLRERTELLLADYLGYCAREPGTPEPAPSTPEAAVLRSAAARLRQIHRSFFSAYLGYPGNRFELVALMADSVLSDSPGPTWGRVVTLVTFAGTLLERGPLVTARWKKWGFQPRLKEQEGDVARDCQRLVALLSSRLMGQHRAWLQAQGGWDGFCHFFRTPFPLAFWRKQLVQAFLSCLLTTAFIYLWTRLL

[20] = biological target: T5, Corticotropin-releasing factor receptor 2/Corticotropin-releasing factor-binding protein (Homo sapiens, UniProt P24387+Q13324); test: activators of CRF receptor 2 with binding protein – uHTS hits, confirmation (AID 602473); type: functional; settings: read-out: EC50_Mean
T5 sequence (Q13324 whole entry): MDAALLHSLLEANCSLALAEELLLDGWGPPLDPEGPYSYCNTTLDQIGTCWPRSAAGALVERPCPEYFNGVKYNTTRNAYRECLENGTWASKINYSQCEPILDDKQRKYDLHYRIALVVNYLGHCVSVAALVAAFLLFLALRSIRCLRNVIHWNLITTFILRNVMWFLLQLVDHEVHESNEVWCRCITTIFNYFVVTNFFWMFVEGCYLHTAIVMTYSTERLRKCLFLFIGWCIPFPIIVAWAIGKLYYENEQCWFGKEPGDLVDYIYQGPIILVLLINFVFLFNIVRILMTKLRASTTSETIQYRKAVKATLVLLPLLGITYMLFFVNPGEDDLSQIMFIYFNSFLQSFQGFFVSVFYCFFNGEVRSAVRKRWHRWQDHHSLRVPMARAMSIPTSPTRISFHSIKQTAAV
T5 sequence (P24387 whole entry): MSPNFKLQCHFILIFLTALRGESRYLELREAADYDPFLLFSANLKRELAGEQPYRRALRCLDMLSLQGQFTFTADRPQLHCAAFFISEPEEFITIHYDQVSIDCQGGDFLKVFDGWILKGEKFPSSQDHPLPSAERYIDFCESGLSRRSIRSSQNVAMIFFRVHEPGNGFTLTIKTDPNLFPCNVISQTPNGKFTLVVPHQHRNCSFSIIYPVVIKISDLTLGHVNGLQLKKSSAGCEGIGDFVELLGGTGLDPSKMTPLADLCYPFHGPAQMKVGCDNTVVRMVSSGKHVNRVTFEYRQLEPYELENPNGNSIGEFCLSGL

[21] = cytotoxicity toward NIH3T3 fibroblasts, dose response, counter-screen, cell-based, ATP luminescence, mouse fibroblasts (AID 2010); type: functional;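 further: cells exposed to compound for about 90 hours before reading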

Sequence of Cytochrome P450 2C9 (P11712 whole entry): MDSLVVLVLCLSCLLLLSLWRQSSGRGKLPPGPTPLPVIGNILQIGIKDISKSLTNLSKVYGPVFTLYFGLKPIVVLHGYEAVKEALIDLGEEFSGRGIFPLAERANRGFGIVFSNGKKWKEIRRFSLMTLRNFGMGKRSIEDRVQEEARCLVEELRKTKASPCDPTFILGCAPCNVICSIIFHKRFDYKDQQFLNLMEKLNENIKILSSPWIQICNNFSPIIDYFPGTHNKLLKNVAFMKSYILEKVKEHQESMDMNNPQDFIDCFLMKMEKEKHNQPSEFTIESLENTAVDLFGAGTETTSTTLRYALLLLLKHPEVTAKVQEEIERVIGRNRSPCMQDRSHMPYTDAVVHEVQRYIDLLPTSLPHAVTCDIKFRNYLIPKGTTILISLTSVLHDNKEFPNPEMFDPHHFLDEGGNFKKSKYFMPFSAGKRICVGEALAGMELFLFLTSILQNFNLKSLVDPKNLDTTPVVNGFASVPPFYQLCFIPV

CCOCC(=O)Nc1cc(-c2cn3cccnc3n2)ccc1C
AC50 (Cytochrome P450 2C9): 22.4 µM (inconclusive)
IC50 (Coagulation factor XII): > 50 µM (inactive)

COc1ccc(/C=C/C(=O)c2cc3cccc(OC)c3oc2=O)cc1
IC50 [1]: 3.3 µM (active)
IC50 (Perilipin-1/ABHD5): 3.34 µM (active)

Cn1c(=O)c(C(=O)CN2CCCc3ccccc32)c(N)n(Cc2ccccc2)c1=O
IC50 (Coagulation factor XII): > 50 µM (inactive)

CN(C)c1ccc(/N=C2\C(=O)N(C)c3cccc4c(O)c5ccccc5c2c34)cc1
IC50 [2]: 0.868 µM (active)
IC50 (Protein Rev): 1.05 µM (active)
IC50 [3]: 10.6 µM (active)

Cc1ccccc1NC(=O)CN1C(=O)N/C(=C\c2ccccc2OCc2ccc(C(=O)O)cc2)C1=O
IC50 [4]: > 20 µM (inactive)
IC50 [5]: 78.5 µM (active)
IC50 [6]: 4.3 µM (active)
IC50 [7]: 7.28 µM (active)

Cc1ccc(NC(=O)CCC(=O)N/N=C/c2ccccc2O)cc1
EC50 [8]: > 20 µM (inactive)
IC50 (HEK293 [9]): 14.7 µM (active)
IC50 (HEK293 [10]): > 20 µM (inactive)
IC50 (HEK293 [11]): > 20 µM (inactive)
EC50 (HEK293 [12]): > 20 µM (inactive)
IC50 (HEK293 [13]): > 20 µM (inactive)

COc1ccc(C(=O)OCC(=O)Nc2ccc([N+](=O)[O-])cc2OC)c(O)c1
IC50 [5]: > 100 µM (inactive)
IC50 [7]: > 100 µM (inactive)

CSC(SC)=C(C#N)C(=O)c1ccccc1
Absolute IC50 (XBP1) (X-box-binding protein 1): 10 µM
IC50 (Genome polyprotein): 84.6 µM (active)

Cc1ccccc1-n1cnc2cc(NCc3cccs3)ccc21
AC50 (Cytochrome P450 2D6): 2.24 µM (inconclusive)
AC50 (Cytochrome P450 2C9): 39.8 µM (inconclusive)
IC50 (Prothrombin): > 50 µM (not active)
EC50 [14]: 16.8 µM (active)
EC50 (Streptokinase A): 87.8 µM (active)
EC50 (Streptococcus): > 150 µM (not active)
EC50 [15]: > 32 µM (inactive)

O=C1Nc2ccccc2/C1=N\N=C\C1=C(N2CCOCC2)C(=C\c2ccccc2)/CC1
CC50 [16]: 28.2 µM (active)
EC50 [17]: 14.2 µM (active)
EC50 [18]: 16 µM (active)
IC50 (Nonstructural protein 1): 8.08 µM (active)
EC50 [15]: > 32 µM (inactive)

COc1ccc(C2Nc3ccccc3C(=O)N2Cc2ccccc2)cc1COc1ccccn1 (stereo not given)
AC50 (CAAX prenyl protease 2): 5.83 µM (active)

CC(C)c1nnc(N2C(=O)c3oc4ccccc4c(=O)c3C2c2ccco2)s1 (stereo not given)
Absolute IC50 (XBP1) (X-box-binding protein 1): 10 µM

Cc1cc2c(cc1C)NC(c1c(C)n(C)n(-c3ccccc3)c1=O)C1=C(O)CC(C)(C)CC1=N2 (stereo not given)
EC50 [19]: 2.27 µM (active)
IC50 (Bcl-2-like protein 10): > 1.56 µM (inactive)
EC50 [20]: > 53 µM (inactive)
EC50 [21]: > 30 µM (not active)
